Source: patent US10059722B2, “Cephalosporin derivatives and methods of use” (priority 2012, dated 2018)
≈ marks a conversion by molar mass, not a printed value. Where two headings read alike, the source gives them in different places.

Legend:
[1] = tested on: replicating M. tuberculosis; experiment: MIC under replication (R) conditions; assay type: cell-based, Mycobacterium tuberculosis; details: Mycobacterium tuberculosis
[2] = tested on: non-replicating M. tuberculosis; experiment: microbe, parasite or virus in culture; assay type: cell-based, Mycobacterium tuberculosis; details: for MIC: Mycobacterium tuberculosis
HepG2 cells = assay type: cell-based
Method: Three lead compounds were identified in the first round of high throughput screening (700 compounds), which had minimal inhibitory concentrations (MIC) of 0.4-0.8 μg/mL after a six day exposure to drug (NRd6) in the model of non-replication at pH 5.0, and LD50's of 100 to >100 μg/mL against HepG2 cells (a 2 day exposure).
Furthermore, LD50 values were determined using a human hepatoma cell line (HepG2) using intracellular ATP levels as a measurement that correlated with cellular viability.

[3] = Table 8, ranges from multiple assays
[4] = read-out: MIC NR at 0.01 Inoc. and 3 Day Exposure to Drug, 7 Day Outgrowth, Table 8, ranges from multiple assays
[5] = read-out: MIC NR at 0.01 Inoc. and 3 Day Exposure to Drug, 11 Day Outgrowth, Table 8, ranges from multiple assays
[6] = 72 h, Table 9, 3 Day Exposure to Drug, read-out: MIC NR 0.01 Inoc.
[7] = 72 h, Table 9, 3 Day Exposure to Drug, read-out: MIC NR 0.1 Inoc.

CCCCOC(=O)C1=C(C)CS[C@@H]2[C@H](NC(=O)COc3ccccc3)C(=O)N12 [Compound 118]
MIC ([1]; read-out: minimum inhibitory concentration against replicating M. tuberculosis): 100 µg/mL (≈ 247 µM)
MIC ([2]; 3,4-olefinic isomers, read-out: minimum inhibitory concentration against non-replicating M. tuberculosis): 3.1 µg/mL (≈ 7.66 µM)

C#CCOC(=O)C1=C(C)CS[C@@H]2[C@H](NC(=O)COc3ccc(OC)cc3)C(=O)N12 [Compound 85]
HepG2 Toxicity LD50 (HepG2 cells; Table 8): >100 µg/mL
MIC NR at 0.01 Inoc. and 3 Day Exposure to Drug, 7 Day Outgrowth [2, 3]: 0.78 µg/mL (≈ 1.87 µM)
MIC NR at 0.01 Inoc. and 3 Day Exposure to Drug, 11 Day Outgrowth [2, 3]: 1.56 µg/mL (≈ 3.75 µM)

CCCOC(=O)C1=C(C)CS[C@@H]2[C@H](NC(=O)COc3ccc(Cl)cc3)C(=O)N12 [Compound 45]
HepG2 Toxicity LD50 (HepG2 cells; Table 8): 100 µg/mL
MIC NR at 0.01 Inoc. and 3 Day Exposure to Drug, 7 Day Outgrowth [2, 3]: 0.39 µg/mL (≈ 0.918 µM)
MIC NR at 0.01 Inoc. and 3 Day Exposure to Drug, 11 Day Outgrowth [2, 3]: 0.39 µg/mL (≈ 0.918 µM)

C#CCOC(=O)C1=C(C)CS[C@@H]2[C@H](NC(=O)COc3ccccc3)C(=O)N12 [Compound 82]
HepG2 Toxicity LD50 (HepG2 cells; Table 8): >100 µg/mL
MIC NR at 0.01 Inoc. and 3 Day Exposure to Drug, 7 Day Outgrowth [2, 3]: 1.56 µg/mL (≈ 4.04 µM)
MIC NR at 0.01 Inoc. and 3 Day Exposure to Drug, 11 Day Outgrowth [2, 3]: 3.13 µg/mL (≈ 8.1 µM)

CCCCOC(=O)C1C(C)=CS[C@@H]2[C@H](NC(=O)COc3ccccc3)C(=O)N12 (some centres unmarked) [Compound 98]
HepG2 Toxicity LD50 (HepG2 cells; human, 2 day): 100 µg/mL
MIC [2, 4]: 0.39 µg/mL (≈ 0.964 µM)
MIC [2, 5]: 0.39 µg/mL (≈ 0.964 µM)

CC1=C(C(=O)OCc2ccccc2)N2C(=O)[C@@H](NC(=O)COc3ccccc3)[C@H]2SC1 [Compound 104]
HepG2 Toxicity LD50 (HepG2 cells; human, 2 day): >100 µg/mL
MIC [2, 4]: 1.56 µg/mL (≈ 3.56 µM)
MIC [2, 5]: 3.13 µg/mL (≈ 7.14 µM)

CCCOC(=O)C1=C(C)CS[C@@H]2[C@H](NC(=O)CCc3ccc(Cl)cc3)C(=O)N12 [Compound 54]
HepG2 Toxicity LD50 (HepG2 cells; Table 8): >100 µg/mL
MIC NR at 0.01 Inoc. and 3 Day Exposure to Drug, 7 Day Outgrowth [2, 3]: 0.20 µg/mL (≈ 0.473 µM)
MIC NR at 0.01 Inoc. and 3 Day Exposure to Drug, 11 Day Outgrowth [2, 3]: 0.39 µg/mL (≈ 0.922 µM)

CCOC(=O)C1=C(C)CS[C@@H]2[C@H](NC(=O)CCc3ccc(OC)cc3)C(=O)N12 [Compound 52]
HepG2 Toxicity LD50 (HepG2 cells; Table 8): >100 µg/mL
MIC NR at 0.01 Inoc. and 3 Day Exposure to Drug, 7 Day Outgrowth [2, 3]: 0.20 µg/mL (≈ 0.494 µM)
MIC NR at 0.01 Inoc. and 3 Day Exposure to Drug, 11 Day Outgrowth [2, 3]: 0.39 µg/mL (≈ 0.964 µM)

C#CCOC(=O)C1=C(C)CS[C@@H]2[C@H](NC(=O)CCc3ccc(Cl)cc3)C(=O)N12 [Compound 97]
HepG2 Toxicity LD50 (HepG2 cells; Table 8): 100 µg/mL
MIC NR at 0.01 Inoc. and 3 Day Exposure to Drug, 7 Day Outgrowth [2, 3]: 0.39 µg/mL (≈ 0.931 µM)
MIC NR at 0.01 Inoc. and 3 Day Exposure to Drug, 11 Day Outgrowth [2, 3]: 0.78 µg/mL (≈ 1.86 µM)

C#CCOC(=O)C1=C(C)CS[C@@H]2[C@H](NC(=O)CCc3ccccc3)C(=O)N12 [Compound 91]
HepG2 Toxicity LD50 (HepG2 cells; Table 8): >100 µg/mL
MIC NR at 0.01 Inoc. and 3 Day Exposure to Drug, 7 Day Outgrowth [2, 3]: 0.78 µg/mL (≈ 2.03 µM)
MIC NR at 0.01 Inoc. and 3 Day Exposure to Drug, 11 Day Outgrowth [2, 3]: 1.56 µg/mL (≈ 4.06 µM)

COc1ccc(CCC(=O)N[C@@H]2C(=O)N3C(C(=O)OCc4ccccc4)=C(C)CS[C@H]23)cc1 [Compound 101]
HepG2 Toxicity LD50 (HepG2 cells; human, 2 day): >100 µg/mL
MIC [2, 4]: 0.39 µg/mL (≈ 0.836 µM)
MIC [2, 5]: 0.78 µg/mL (≈ 1.67 µM)

CCOC(=O)C1=C(C)CS[C@@H]2[C@H](NC(=O)CCc3ccc(Cl)cc3)C(=O)N12 [Compound 55]
HepG2 Toxicity LD50 (HepG2 cells; Table 8): >100 µg/mL
MIC NR at 0.01 Inoc. and 3 Day Exposure to Drug, 7 Day Outgrowth [2, 3]: 0.20 µg/mL (≈ 0.489 µM)
MIC NR at 0.01 Inoc. and 3 Day Exposure to Drug, 11 Day Outgrowth [2, 3]: 0.39 µg/mL (≈ 0.954 µM)

CCCNC(=O)C1=C(C)CS[C@@H]2[C@H](NC(=O)CCc3ccc(OC)cc3)C(=O)N12 [Compound 117]
MIC ([1]; Table 9, read-out: MIC R): > 100 µg/mL
HepG2 LD50 (HepG2 cells; human, 2 day): >100 µg/mL
MIC [2, 6]: 100 µg/mL (≈ 240 µM)
MIC [2, 7]: > 100 µg/mL

CCOC(=O)C1=C(C)CS[C@@H]2[C@H](NC(=O)COc3ccccc3)C(=O)N12 [Compound 40]
HepG2 Toxicity LD50 (HepG2 cells; Table 8): >100 µg/mL
MIC NR at 0.01 Inoc. and 3 Day Exposure to Drug, 7 Day Outgrowth [2, 3]: 0.39 µg/mL (≈ 1.04 µM)
MIC NR at 0.01 Inoc. and 3 Day Exposure to Drug, 11 Day Outgrowth [2, 3]: 0.78 µg/mL (≈ 2.07 µM)

CC1=C(C(=O)OCc2ccccc2)N2C(=O)[C@@H](NC(=O)COc3ccc(Cl)cc3)[C@H]2SC1 [Compound 102]
HepG2 Toxicity LD50 (HepG2 cells; human, 2 day): >100 µg/mL
MIC [2, 4]: 0.78 µg/mL (≈ 1.65 µM)
MIC [2, 5]: 1.56 µg/mL (≈ 3.3 µM)

C#CCOC(=O)C1=C(C)CS[C@@H]2[C@H](N(CC#C)CC#C)C(=O)N12 [Compound 106]
HepG2 Toxicity LD50 (HepG2 cells; human, 2 day): 100 µg/mL
MIC [2, 4]: 12.5 µg/mL (≈ 38.1 µM)
MIC [2, 5]: 25 µg/mL (≈ 76.1 µM)

CC1=C(C(=O)O)N2C(=O)[C@@H](NC(=O)Cc3ccc(Cl)cc3)[C@H]2SC1 [Compound 115]
MIC ([1]; Table 9, read-out: MIC R): 100 µg/mL (≈ 273 µM)
HepG2 LD50 (HepG2 cells; human, 2 day): >100 µg/mL
MIC [2, 6]: > 100 µg/mL
MIC [2, 7]: > 100 µg/mL

CCCOC(=O)C1=C(C)CS[C@@H]2[C@H](NC(=O)CCc3ccc(OC)cc3)C(=O)N12 [Compound 51]
MIC NR at 0.01 Inoc. and 3 Day Exposure to Drug, 7 Day Outgrowth [2, 3]: 0.10 µg/mL (≈ 0.239 µM)
MIC NR at 0.01 Inoc. and 3 Day Exposure to Drug, 11 Day Outgrowth [2, 3]: 0.10 µg/mL (≈ 0.239 µM)

CCCCOc1ccc(CCC(=O)N[C@@H]2C(=O)N3C(C(=O)O)=C(C)CS[C@H]23)cc1 [Compound 110]
MIC ([1]; Table 9, read-out: MIC R): 100 µg/mL (≈ 239 µM)
HepG2 LD50 (HepG2 cells; human, 2 day): >100 µg/mL
MIC [2, 6]: 100 µg/mL (≈ 239 µM)
MIC [2, 7]: > 100 µg/mL

CC1=C(C(=O)O)N2C(=O)[C@@H](NC(=O)CCc3ccc(Br)cc3)[C@H]2SC1 [Compound 111]
MIC ([1]; Table 9, read-out: MIC R): 100 µg/mL (≈ 235 µM)
HepG2 LD50 (HepG2 cells; human, 2 day): >100 µg/mL
MIC [2, 6]: > 100 µg/mL
MIC [2, 7]: > 100 µg/mL
